In the experiment the test system is Mycobacterium smegmatis. The experiment in a line: In vitro Mycobacterium smegmatis growth inhibition assay (suspension turbidity, 96 hours). Type of experiment: cell-based. The settings on record: for % of Celular Growth at 96 hours: Mycobacterium smegmatis; for inhibitory activity against Mycobacterium smegmatis growth (in words, compared with RMP): compared with the active control RMP; for IC50: concentration to inhibit 50% of Mycobacterium smegmatis growth, four parameter curve fit.

On to “2-hydroxy-5-methylbenzaldehyde-(2-pyridinyl)hydrazine [Compound 61]”, for which the “inhibitory activity against Mycobacterium smegmatis growth (in words, compared with RMP)” value is on record as “better IC50 values than RMP” and the IC50 was found to be 13.5 µM. Moreover, for the setting “concentration 1.23 μM”, the “% of Celular Growth at 96 hours” value came out at 75.35%. For the same compound, the “% of Celular Growth at 96 hours” value (concentration 3.70 μM) came to 69.76%. The “% of Celular Growth at 96 hours” value (concentration 11.11 μM) came out at 83.84%. Moreover, where the note is “concentration 33.33 μM”, the “% of Celular Growth at 96 hours” value was found to be 20.08%. Moreover, the “% of Celular Growth at 96 hours” value (concentration 100.00 μM) came out at 24.45%. The “inhibitory activity against Mycobacterium smegmatis growth (in words, compared with RMP)” value (listed as N-pyridin-2-yl-N′-5-methyl-2-hydroxyphenylmethylene-hydrazine) is “desired pharmacological activity”.

With “3,5-dibromo-2-hydroxybenzaldehyde (2-pyridinyl)hydrazine [Compound 42]”, the “inhibitory activity against Mycobacterium smegmatis growth (in words, compared with RMP)” value is “better IC50 values than RMP” and half-maximal inhibition (IC50) was put at 15.2 µM. In addition, where the note is “concentration 1.23 μM”, the “% of Celular Growth at 96 hours” value is given as 110.06%. Also, the “% of Celular Growth at 96 hours” value (concentration 3.70 μM) stood at 104.48%. The “% of Celular Growth at 96 hours” value (concentration 11.11 μM) came to 98.17%. Also, the “% of Celular Growth at 96 hours” value (concentration 33.33 μM) is listed as 41.52%. For the same compound, for the setting “concentration 100.00 μM”, the “% of Celular Growth at 96 hours” value is on record as 31.91%. Also, the “inhibitory activity against Mycobacterium smegmatis growth (in words, compared with RMP)” value (listed as compound 42) is recorded as “superior inhibitory activity against Mycobacterium smegmatis than the prior art compound RMP”.

`Oc1ccc(Br)cc1C=NNc1ccccn1` [Compound 70, 5-bromo-2-hydroxybenzaldehyde-2pyridinilhydrazone]: the “inhibitory activity against Mycobacterium smegmatis growth (in words, compared with RMP)” value was “better IC50 values than RMP” and the IC50 was determined as 13.9 µM. Further, the “% of Celular Growth at 96 hours” value (concentration 1.23 μM) was found to be 95.9%. In addition, the “% of Celular Growth at 96 hours” value (concentration 3.70 μM) is reported as 96.6%. Also, where the note is “concentration 11.11 μM”, the “% of Celular Growth at 96 hours” value is reported as 80.0%. For the same compound, the “% of Celular Growth at 96 hours” value (concentration 33.33 μM) was 44.2%. Where the note is “concentration 100.00 μM”, the “% of Celular Growth at 96 hours” value came to 38.9%. The “inhibitory activity against Mycobacterium smegmatis growth (in words, compared with RMP)” value (listed as N-pyridin-2-yl-N′-5-bromo-2-hydroxyphenylmethylene-hydrazine) is “desired pharmacological activity”.

As to `C(=NNc1ccccn1)c1cccs1` [N-pyridin-2-yl-N′-thiophen-2-ylmethylene-hydrazine], the “inhibitory activity against Mycobacterium smegmatis growth (in words, compared with RMP)” value is “desired pharmacological activity”.

`CO[C@H]1/C=C/O[C@@]2(C)Oc3c(C)c(O)c4c(O)c(c(/C=N/N5CCN(C)CC5)c(O)c4c3C2=O)NC(=O)/C(C)=C\C=C\[C@H](C)[C@H](O)[C@@H](C)[C@@H](O)[C@@H](C)[C@H](OC(C)=O)[C@@H]1C` [Rifampicin, reference compound]: the “% of Celular Growth at 96 hours” value reads like this: (concentration 1.23 μM) 82.55%; (concentration 3.70 μM) 81.40%; (concentration 11.11 μM) 90.62%; (concentration 33.33 μM) 58.04%; (concentration 100.00 μM) 22.26%. Also, half-maximal inhibition (Mycolicibacterium smegmatis) (IC50) required 24.8 µM.

For orientation: IC50 means the concentration needed to halve the response being measured. Low readings indicate inhibition by little substance, high ones a need for much substance.
